These results are taken from ChEMBL document CHEMBL2363022, “Malaria Box Schistosomiasis Screening Data” (2013).

Format in all cases: functional
Experiment [1] has as its system Schistosoma mansoni. The experiment in a line: MMV: Toxicity @ 5 uM to 4-5 Schistosoma mansoni adult males after 48 h on a scale of 0 (none) - 4 (most). Includes short descriptors of effects as judged visually (PMID:19597541). Only those Malaria box 'drug-like' cpds yielding the most severe phenotypes vs. somules were tested. Caffrey group UCSF.
The subject of experiment [2] is Schistosoma mansoni. The experiment in a line: MMV: Motility assay. Percent change (relative to DMSO controls) @ 5 uM of movement of 4-5 Schistosoma mansoni adult males after 24 h as measured by the Consensus Voting Luminance Difference algorithm available on WormAssay (PMID:22303493). Occasional incongruence ocurrs between the motility scores and the visually adjudicated 'toxicity scores'. In these cases the 'toxicity score' should be prioritized. Only those Malaria box 'Drug-like' cpds yielding the most severe phenotypes vs. somules were tested. Caffrey group UCSF.

In experiment [3] the test system is Schistosoma mansoni. The experiment in a line: MMV: Motility assay. Percent change (relative to DMSO controls) @ 5 uM of movement of 4-5 Schistosoma mansoni adult males after 72 h as measured by the Consensus Voting Luminance Difference algorithm available on WormAssay (PMID:22303493). Occasional incongruence ocurrs between the motility scores and the visually adjudicated 'toxicity scores'. In these cases the 'toxicity score' should be prioritized. Only those Malaria box 'Drug-like' cpds yielding the most severe phenotypes vs. somules were tested. Caffrey group UCSF.

Experiment [4] deals with Schistosoma mansoni. On the set-up: scale not given here.
The subject of experiment [5] is Schistosoma mansoni. Briefly: MMV: Toxicity @ 5 uM to 4-5 Schistosoma mansoni adult males after 72 h on a scale of 0 (none) - 4 (most). Includes short descriptors of effects as judged visually (PMID:19597541). Only those Malaria box 'drug-like' cpds yielding the most severe phenotypes vs. somules were tested. Caffrey group UCSF.
Experiment [6] deals with Schistosoma mansoni. The experiment in a line: MMV: Toxicity @ 5 uM to 4-5 Schistosoma mansoni adult males after 24 h on a scale of 0 (none) - 4 (most). Includes short descriptors of effects as judged visually (PMID:19597541). Only those Malaria box 'drug-like' cpds yielding the most severe phenotypes vs. somules were tested. Caffrey group UCSF.
Experiment [7] deals with Schistosoma mansoni. On the set-up: scale not given here. The source holds these as a separate data set.
For experiment [8], the system named is Schistosoma mansoni. Briefly: MMV: Motility assay. Percent change (relative to DMSO controls) @ 5 uM of movement of 4-5 Schistosoma mansoni adult males after 48 h as measured by the Consensus Voting Luminance Difference algorithm available on WormAssay (PMID:22303493). Occasional incongruence ocurrs between the motility scores and the visually adjudicated 'toxicity scores'. In these cases the 'toxicity score' should be prioritized. Only those Malaria box 'Drug-like' cpds yielding the most severe phenotypes vs. somules were tested. Caffrey group UCSF.

Experiment [9] concerns Schistosoma mansoni. The arrangement: scale not given here. This is another data set of the same source.

Take `O=C(NC(c1ccccc1)c1ccc2cccnc2c1O)c1ccccc1` (stereo not given): the Toxicity was 3 with Schistosoma mansoni [1]; 0 in the experiment on Schistosoma mansoni [4]; 4 in the experiment on Schistosoma mansoni [5]; 0 in the experiment on Schistosoma mansoni [6]; 4 with Schistosoma mansoni [7]; 3 in the experiment on Schistosoma mansoni [9]. Besides, the Motility is 74 in the experiment on Schistosoma mansoni [2]; “Slow, on sides, dark, tegument damage” with Schistosoma mansoni [3]; 16.1 in the experiment on Schistosoma mansoni [8].

For the molecule `COc1ccc(CCN2CCC(CN(C)Cc3cnn(-c4ccccc4)c3)CC2)cc1`, the Toxicity in the experiment on Schistosoma mansoni [1] was 0; in the experiment with Schistosoma mansoni [4], 2; in the experiment on Schistosoma mansoni [5], 0; in the experiment on Schistosoma mansoni [6], 0; in the experiment on Schistosoma mansoni [7], 1; in the experiment with Schistosoma mansoni [9], 1. For the same molecule, the Motility in the experiment on Schistosoma mansoni [2] was 33.8; in the experiment with Schistosoma mansoni [3], 70.2; in the experiment on Schistosoma mansoni [8] it was 114.8.

For `O=C(Nc1nc(-c2ccccn2)cs1)c1ccccc1Br`, the Toxicity is listed as 0 with Schistosoma mansoni [1]; 2 in the experiment on Schistosoma mansoni [4]; 0 in the experiment with Schistosoma mansoni [5]; 0 with Schistosoma mansoni [6]; 4 with Schistosoma mansoni [7]; 2 with Schistosoma mansoni [9]. Besides, the figures for the Motility in the experiment with Schistosoma mansoni [2], with Schistosoma mansoni [3] and in the experiment with Schistosoma mansoni [8] were 69.2, 88 and 80.4, respectively.

Consider `CNCCCNc1ccnc2cc(Cl)ccc12`, for which the Toxicity in the experiment on Schistosoma mansoni [1] worked out at 0; in the experiment with Schistosoma mansoni [4], 2; in the experiment on Schistosoma mansoni [5], 0; with Schistosoma mansoni [6], 0; in the experiment with Schistosoma mansoni [7] it was 2; with Schistosoma mansoni [9], 2. Further, the Motility in the experiment with Schistosoma mansoni [2] was 113.2; in the experiment with Schistosoma mansoni [3] it was “No effect”; in the experiment with Schistosoma mansoni [8], 116.2.

As to `COc1cc2c(cc1OC)C1=NNC(=O)C1=NC(C)(C)C2`, the Toxicity in the experiment on Schistosoma mansoni [1] is 0; in the experiment on Schistosoma mansoni [4], 0; with Schistosoma mansoni [5], 0; in the experiment with Schistosoma mansoni [6], 0; in the experiment on Schistosoma mansoni [7] it was 4; in the experiment on Schistosoma mansoni [9], 4. The Motility in the experiment with Schistosoma mansoni [2] is 140; in the experiment on Schistosoma mansoni [3], “No effect”; in the experiment on Schistosoma mansoni [8], 120.

For the molecule `CC(C)(C)CC(C)(C)NCC(O)COc1ccc(Cl)cc1Cl` (stereo not given), the Toxicity in the experiment with Schistosoma mansoni [1] amounted to 1; in the experiment with Schistosoma mansoni [4], 0; with Schistosoma mansoni [6], 0; in the experiment on Schistosoma mansoni [7], 4; in the experiment on Schistosoma mansoni [9] it was 4. The molecule also gave a Motility in the experiment on Schistosoma mansoni [8] of 53.

`Cc1ccnc(NC(c2cccc(OCc3ccccc3)c2)c2ccc3cccnc3c2O)c1` (stereo not given): the Toxicity in the experiment with Schistosoma mansoni [4] is listed as 1; in the experiment on Schistosoma mansoni [7], 4; with Schistosoma mansoni [9], 4.

Regarding `CC(C)c1ccc(CNCC(O)c2ccccc2)cc1.Cl` (stereo not given), the Toxicity in the experiment on Schistosoma mansoni [4], with Schistosoma mansoni [7] and with Schistosoma mansoni [9] was 0 throughout.

In the case of `O=C(NC1CCCCC1)C(c1cccs1)N(CCc1ccccc1)C(=O)c1ccco1` (stereo not given), the Toxicity in the experiment with Schistosoma mansoni [4], with Schistosoma mansoni [7] and with Schistosoma mansoni [9] was 0 in each case.

As for `CCCCCC(=O)N1c2ccccc2N=C2CC(c3ccc(OC)c(OC)c3)CC(O)=C2C1c1ccc(C(F)(F)F)cc1` (stereo not given), the Toxicity with Schistosoma mansoni [4], in the experiment with Schistosoma mansoni [7] and in the experiment on Schistosoma mansoni [9] was 0 each time.

As for `COc1cc(CNCCc2ccc(Cl)cc2)cc(OC)c1O`, the Toxicity in the experiment on Schistosoma mansoni [4], with Schistosoma mansoni [7] and with Schistosoma mansoni [9] was 0 in each case.

Turning to `COc1cccc(Nc2nc(N)c3ccccc3n2)c1.Cl`, the Toxicity in the experiment on Schistosoma mansoni [4], with Schistosoma mansoni [7] and in the experiment on Schistosoma mansoni [9] was 0 throughout.

`CSc1ccccc1C(=O)Nc1nc(-c2ccccn2)cs1`: the Toxicity in the experiment with Schistosoma mansoni [4], with Schistosoma mansoni [7] and in the experiment on Schistosoma mansoni [9] was 0 in each case.

For the molecule `CCOc1c(Cl)cc(CNC(C)C(O)c2ccccc2)cc1OC` (stereo not given), the Toxicity with Schistosoma mansoni [4], with Schistosoma mansoni [7] and in the experiment on Schistosoma mansoni [9] was 0 in each case.

For the molecule `c1ccc(/C2=N/c3ccccc3/N=C(/c3ccccc3)c3ccccc32)cc1`, the Toxicity in the experiment with Schistosoma mansoni [4], with Schistosoma mansoni [7] and with Schistosoma mansoni [9] was 1 each time.

Consider `CCc1c(C)c(=N)c2ccccc2n1C.I`, for which the Toxicity in the experiment on Schistosoma mansoni [4], with Schistosoma mansoni [7] and with Schistosoma mansoni [9] was 0 throughout.

As for `CCOC(=O)c1cnc2c(C)cc(C)cc2c1Nc1ccc(OC)c(OC)c1`, the results for the Toxicity in the experiment on Schistosoma mansoni [4], with Schistosoma mansoni [7] and in the experiment on Schistosoma mansoni [9] were 0, 0 and 2, respectively.

Consider `CCC1(C)CC(CCNCc2ccccc2O)(c2ccc(C)cc2)CCO1` (stereo not given), for which the results for the Toxicity with Schistosoma mansoni [4], with Schistosoma mansoni [7] and with Schistosoma mansoni [9] were 2, 4 and 2, respectively.

Turning to `COc1ccc(-c2cc3c(nn2)-c2ccccc2C3=O)cc1`, the Toxicity in the experiment on Schistosoma mansoni [4], with Schistosoma mansoni [7] and with Schistosoma mansoni [9] was 0 in each case.

For `CCCCCCc1cc2cc(-c3csc(C=Cc4ccccc4)n3)c(=O)oc2cc1O`, the Toxicity with Schistosoma mansoni [4], in the experiment on Schistosoma mansoni [7] and with Schistosoma mansoni [9] was 0 each time.

Turning to `CC(C)CNC(=O)c1c(N)n(CCc2ccccc2F)c2nc3ccccc3nc12`, the figures for the Toxicity in the experiment on Schistosoma mansoni [4], in the experiment on Schistosoma mansoni [7] and with Schistosoma mansoni [9] were 0, 2 and 2, respectively.

With `O=C(NC1CCN(Cc2ccccc2)CC1)c1cc(C(=O)NC2CCN(Cc3ccccc3)CC2)cc(C(=O)NC2CCN(Cc3ccccc3)CC2)c1`, the Toxicity in the experiment on Schistosoma mansoni [4], with Schistosoma mansoni [7] and in the experiment on Schistosoma mansoni [9] was 0 throughout.

Take `CCCCCCOC(=O)C1=C(C)NC(=O)NC1c1ccccc1F` (stereo not given): the Toxicity in the experiment on Schistosoma mansoni [4], in the experiment on Schistosoma mansoni [7] and in the experiment with Schistosoma mansoni [9] was 0 each time.

With `O=C(Nc1ccc(CN2CCOCC2)cc1)c1ccc(-c2cc(Cl)ccc2Cl)o1`, the Toxicity in the experiment with Schistosoma mansoni [4] amounted to 0; in the experiment with Schistosoma mansoni [7] it was 0; in the experiment on Schistosoma mansoni [9], 2.

Regarding `CCC(C)NCC(O)(c1ccc(Cl)cc1)c1ccc(Cl)cc1` (stereo not given), the Toxicity in the experiment on Schistosoma mansoni [4] is 1; in the experiment with Schistosoma mansoni [7], 0; with Schistosoma mansoni [9] it was 0.

For the molecule `CC(C)CCNCC(O)Cn1c2ccccc2c2ccccc21.Cl` (stereo not given), the results for the Toxicity in the experiment with Schistosoma mansoni [4], in the experiment on Schistosoma mansoni [7] and with Schistosoma mansoni [9] were 2, 4 and 4, respectively.

For the molecule `COc1cccc(C2(C)Nc3ccccc3-c3nc4ccccc4n32)c1` (stereo not given), the Toxicity with Schistosoma mansoni [4], in the experiment with Schistosoma mansoni [7] and in the experiment with Schistosoma mansoni [9] was 0 in each case.

Turning to `CC(Oc1ccc(NC(=O)c2cccs2)cc1)C(=O)c1ccc(Cl)cc1` (stereo not given), the Toxicity in the experiment on Schistosoma mansoni [4], with Schistosoma mansoni [7] and in the experiment on Schistosoma mansoni [9] was 0 each time.

In the case of `CCOc1ccc2c(c1)CN(Cc1ccc(Cl)cc1)CO2`, the Toxicity in the experiment with Schistosoma mansoni [4] amounted to 2; in the experiment with Schistosoma mansoni [7], 0; in the experiment with Schistosoma mansoni [9], 0.

Regarding `Oc1ccc(C(=C(Cl)Cl)c2ccc(O)cc2)cc1`, the Toxicity in the experiment on Schistosoma mansoni [4], in the experiment on Schistosoma mansoni [7] and in the experiment on Schistosoma mansoni [9] was 0 throughout.

`CCCCCCc1cc2cc(-c3nc4ccccc4[nH]3)c(=Nc3ccccc3C)oc2cc1O`: the Toxicity with Schistosoma mansoni [4] came to 0; with Schistosoma mansoni [7], 3; in the experiment with Schistosoma mansoni [9], 3.

Take `O=C(NCC(c1ccsc1)N1CCCCCC1)c1ccc(C(F)(F)F)cc1` (stereo not given): the Toxicity in the experiment with Schistosoma mansoni [4], with Schistosoma mansoni [7] and with Schistosoma mansoni [9] was 0 each time.

`COc1ccc2nc(C)cc(Nc3cccc(O)c3)c2c1.Cl`: the Toxicity with Schistosoma mansoni [4] is listed as 2; in the experiment on Schistosoma mansoni [7] it was 0; with Schistosoma mansoni [9] it was 0.

Regarding `COc1ccccc1N1C(=N)SC(=Cc2ccc(OCc3ccccc3F)cc2)C1=O`, the Toxicity in the experiment with Schistosoma mansoni [4], in the experiment on Schistosoma mansoni [7] and in the experiment on Schistosoma mansoni [9] was 0 in each case.

Turning to `COc1ccc(CCNC(=O)c2cc(S(=O)(=O)N3CC(C)CC(C)C3)ccc2Sc2ccc(F)cc2)cc1OC` (stereo not given), the Toxicity in the experiment on Schistosoma mansoni [4], with Schistosoma mansoni [7] and with Schistosoma mansoni [9] was 4 throughout.

As for `CCCc1c(C)nc2ccc(Br)cc2c1O`, the Toxicity in the experiment on Schistosoma mansoni [4], with Schistosoma mansoni [7] and with Schistosoma mansoni [9] was 0 throughout.

Consider `CCCCOc1ccc(C(=O)Nc2cc(C)on2)cc1`, for which the Toxicity with Schistosoma mansoni [4], in the experiment on Schistosoma mansoni [7] and in the experiment with Schistosoma mansoni [9] was 0 each time.

Regarding `Cc1[nH]c(-c2ccc(F)cc2)cc1C(=O)NC1CCN(Cc2ccccc2)CC1`, the values for the Toxicity in the experiment with Schistosoma mansoni [4], in the experiment on Schistosoma mansoni [7] and in the experiment on Schistosoma mansoni [9] were 0, 3 and 0, respectively.

`O=C(Nc1ccc(N2CCCCC2)c(Cl)c1)c1ccc(Br)o1`: the Toxicity in the experiment with Schistosoma mansoni [4], in the experiment on Schistosoma mansoni [7] and with Schistosoma mansoni [9] was 0 throughout.
